Measured values reported in patent US9267949B2, “Alkylamino BODIPY dyes as selective fluorescent probes for proteins and mouse embryonic stem cells” (National University of Singapore, priority 2011, dated 2016).

Columns and labels:
[1] = Spectroscopic properties of the BDM library (absorbance and emission maxima); type: physicochemical
[2] = Quantum yield measurements; type: physicochemical; conditions: referred to Rhodamine B in EtOH, excitation 510 nm, emission integrated 540-800 nm
Procedure: Quantum yields were calculated by measuring the integrated emission area of the fluorescent spectra, and referring them to the area measured for Rhodamine B in EtOH after excitation at 510 nm (ΦRho-B=0.70). Quantum yields for the BDM products were then calculated using equation below, where F represents the area of fluorescent emission, n is reflective index of the solvent, and Abs is absorbance at excitation wavelength selected for standards and samples. Emission was integrated from 540 nm to 800 nm.

| SMILES | λmax (ABS) [1] | λmax (EM) [1] | φ (quantum yield) [2] |
| --- | --- | --- | --- |
| CC1=CC(/C=C/c2ccccc2OCc2ccccc2)=[N+]2C1=C(CCN)c1cccn1[B-]2(F)F [BDM-218] | 559 nm | 574 nm | 0.37 |
| CC1=CC(/C=C/c2ccc(Cl)c(F)c2)=[N+]2C1=C(CCN)c1cccn1[B-]2(F)F [BDM-437] | 555 nm | 566 nm | 0.21 |
| CC1=CC(/C=C/c2cccc(N3CCCCC3)c2[N+](=O)[O-])=[N+]2C1=C(CCN)c1cccn1[B-]2(F)F [BDM-356] | 573 nm | 682 nm | 0.03 |
| CC1=CC(/C=C/c2ccc(Oc3ccc(F)cc3)cc2)=[N+]2C1=C(CCN)c1cccn1[B-]2(F)F [BDM-322] | 559 nm | 577 nm | 0.15 |
| CC1=CC(/C=C/c2ccc(-c3cccc(Cl)c3)o2)=[N+]2C1=C(CCN)c1cccn1[B-]2(F)F [BDM-284] | 594 nm | 622 nm | 0.03 |
| CC1=CC(/C=C/c2cccc(I)c2)=[N+]2C1=C(CCN)c1cccn1[B-]2(F)F [BDM-303] | 555 nm | 566 nm | 0.31 |
| CC1=CC(/C=C/c2cccc3c2OCO3)=[N+]2C1=C(CCN)c1cccn1[B-]2(F)F [BDM-231] | 558 nm | 568 nm | 0.17 |
| CC1=CC(/C=C/c2c3ccccc3c(C)c3ccccc23)=[N+]2C1=C(CCN)c1cccn1[B-]2(F)F [BDM-340] | 534 nm | 541 nm | 0.11 |
| CC1=CC(/C=C/c2ccc(SC(F)(F)F)cc2)=[N+]2C1=C(CCN)c1cccn1[B-]2(F)F [BDM-363] | 553 nm | 564 nm | 0.51 |
| COC(=O)c1ccc(-c2ccc(/C=C/C3=[N+]4C(=C(CCN)c5cccn5[B-]4(F)F)C(C)=C3)cc2)cc1 [BDM-179] | 566 nm | 581 nm | 0.26 |
| CC1=CC(/C=C/c2ccccc2C)=[N+]2C1=C(CCN)c1cccn1[B-]2(F)F [BDM-143] | 554 nm | 566 nm | 0.42 |
| CC1=CC(/C=C/c2cccc(Oc3ccccc3)c2)=[N+]2C1=C(CCN)c1cccn1[B-]2(F)F [BDM-20] | 554 nm | 564 nm | 0.47 |
| CC1=CC(/C=C/c2ccccc2OC(F)F)=[N+]2C1=C(CCN)c1cccn1[B-]2(F)F [BDM-240] | 552 nm | 565 nm | 0.23 |
| CC1=CC(/C=C/c2ccc(N(C)C)c3ccccc23)=[N+]2C1=C(CCN)c1cccn1[B-]2(F)F [BDM-377] | 586 nm |  | 0.04 |
| CC1=CC(/C=C/c2ccc(OCCCN(C)C)cc2)=[N+]2C1=C(CCN)c1cccn1[B-]2(F)F [BDM-163] | 566 nm | 586 nm | 0.41 |
| CC1=CC(/C=C/c2ccc(OC(F)F)cc2)=[N+]2C1=C(CCN)c1cccn1[B-]2(F)F [BDM-326] | 554 nm | 565 nm | 0.71 |
| CC1=CC(/C=C/c2ccc(C)cc2Br)=[N+]2C1=C(CCN)c1cccn1[B-]2(F)F [BDM-267] | 558 nm | 573 nm | 0.21 |
| CC1=CC(/C=C/c2ccccc2I)=[N+]2C1=C(CCN)c1cccn1[B-]2(F)F [BDM-384] | 551 nm | 565 nm | 0.32 |
| CC1=CC(/C=C/c2cc(OCc3ccccc3)cc(OCc3ccccc3)c2)=[N+]2C1=C(CCN)c1cccn1[B-]2(F)F [BDM-331] | 554 nm | 566 nm | 0.65 |
| CC1=CC(/C=C/c2ccc(Br)cc2)=[N+]2C1=C(CCN)c1cccn1[B-]2(F)F [BDM-409] | 558 nm | 570 nm | 0.12 |
| CC(=O)Nc1ccc(/C=C/C2=[N+]3C(=C(CCN)c4cccn4[B-]3(F)F)C(C)=C2)cc1 [BDM-111] | 566 nm | 589 nm | 0.79 |
| CCOc1ccccc1/C=C/C1=[N+]2C(=C(CCN)c3cccn3[B-]2(F)F)C(C)=C1 [BDM-336] | 560 nm | 577 nm | 0.58 |
| CC1=CC(/C=C/c2ccc(N(C)CCO)cc2)=[N+]2C1=C(CCN)c1cccn1[B-]2(F)F [BDM-91] | 614 nm | 699 nm | 0.02 |

Now from value to compound:

| λmax (ABS) [1] | λmax (EM) [1] | φ (quantum yield) [2] | SMILES |
| --- | --- | --- | --- |
| 557 nm | 568 nm | 0.18 | COc1cc(/C=C/C2=[N+]3C(=C(CCN)c4cccn4[B-]3(F)F)C(C)=C2)ccc1F [BDM-312] |
| 565 nm | 579 nm | 0.06 | COc1ccc(/C=C/c2cc(C)c3n2[B-](F)(F)[N+]2=CC=CC2=C3CCN)c(Cl)c1O [BDM-38] |
| 576 nm | 610 nm | 0.22 | COc1ccc2ccccc2c1/C=C/C1=[N+]2C(=C(CCN)c3cccn3[B-]2(F)F)C(C)=C1 [BDM-61] |
| 593 nm | 624 nm | 0.02 | Cc1cc(/C=C/c2ccc(N(c3ccccc3)c3ccccc3)cc2)n2c1C(CCN)=C1C=CC=[N+]1[B-]2(F)F [BDM-14] |
| 555 nm | 569 nm | 0.71 | Cc1cc(/C=C/c2ccc(C(C)C)cc2)n2c1C(CCN)=C1C=CC=[N+]1[B-]2(F)F [BDM-19] |
| 561 nm | 572 nm | 0.04 | COc1cccc(/C=C/C2=[N+]3C(=C(CCN)c4cccn4[B-]3(F)F)C(C)=C2)c1O [BDM-97] |
| 565 nm | 591 nm | 0.78 | COc1ccc(/C=C/C2=[N+]3C(=C(CCN)c4cccn4[B-]3(F)F)C(C)=C2)cc1C [BDM-335] |
| 563 nm | 583 nm | 0.85 | COc1ccc(/C=C/C2=[N+]3C(=C(CCN)c4cccn4[B-]3(F)F)C(C)=C2)cc1 [BDM-110] |
| 566 nm | 591 nm | 0.37 | COc1ccc(/C=C/c2cc(C)c3n2[B-](F)(F)[N+]2=CC=CC2=C3CCN)cc1OCc1ccccc1 [BDM-7] |
| 561 nm | 586 nm | 0.21 | COc1cc(/C=C/c2cc(C)c3n2[B-](F)(F)[N+]2=CC=CC2=C3CCN)cc(OC)c1OC [BDM-1] |
| 568 nm | 600 nm | 0.46 | CCOc1ccc(/C=C/c2cc(C)c3n2[B-](F)(F)[N+]2=CC=CC2=C3CCN)cc1OCC [BDM-53] |
| 555 nm | 563 nm | 0.32 | COc1ccc(F)c(/C=C/C2=[N+]3C(=C(CCN)c4cccn4[B-]3(F)F)C(C)=C2)c1 [BDM-245] |
| 557 nm | 568 nm | 0.24 | CC1=CC(/C=C/c2ccc(C)c(F)c2)=[N+]2C1=C(CCN)c1cccn1[B-]2(F)F [BDM-249] |
| 568 nm | 595 nm | 0.23 | Cc1cc(/C=C/c2ccc(C)c3ccccc23)n2c1C(CCN)=C1C=CC=[N+]1[B-]2(F)F [BDM-36] |
| 559 nm | 573 nm | 0.35 | COc1cc(/C=C/C2=[N+]3C(=C(CCN)c4cccn4[B-]3(F)F)C(C)=C2)cc(Br)c1OC [BDM-259] |
| 556 nm | 571 nm | 0.14 | COc1ccc(/C=C/C2=[N+]3C(=C(CCN)c4cccn4[B-]3(F)F)C(C)=C2)cc1[N+](=O)[O-] [BDM-350] |
| 566 nm | 590 nm | 0.42 | Cc1cc(/C=C/c2ccc(OCc3ccccc3)c(OCc3ccccc3)c2)n2c1C(CCN)=C1C=CC=[N+]1[B-]2(F)F [BDM-4] |
| 564 nm | 579 nm | 0.21 | Cc1cc(/C=C/c2cc(C(C)(C)C)ccc2O)n2c1C(CCN)=C1C=CC=[N+]1[B-]2(F)F [BDM-43] |
| 568 nm | 597 nm | 0.54 | CCOc1ccc(/C=C/C2=[N+]3C(=C(CCN)c4cccn4[B-]3(F)F)C(C)=C2)cc1OC [BDM-63] |
| 553 nm | 564 nm | 0.97 | COc1cccc(/C=C/C2=[N+]3C(=C(CCN)c4cccn4[B-]3(F)F)C(C)=C2)c1 [BDM-186] |
| 564 nm | 583 nm | 0.74 | CCCCCCOc1ccc(/C=C/c2cc(C)c3n2[B-](F)(F)[N+]2=CC=CC2=C3CCN)cc1 [BDM-45] |
| 592 nm | 653 nm | 0.06 | COc1ccc2[nH]cc(/C=C/C3=[N+]4C(=C(CCN)c5cccn5[B-]4(F)F)C(C)=C3)c2c1 [BDM-93] |
| 566 nm | 591 nm | 0.57 | COc1ccc(/C=C/C2=[N+]3C(=C(CCN)c4cccn4[B-]3(F)F)C(C)=C2)c(OC)c1C [BDM-347] |
| 567 nm | 587 nm | 0.25 | COc1cc(F)c(/C=C/C2=[N+]3C(=C(CCN)c4cccn4[B-]3(F)F)C(C)=C2)cc1OC [BDM-305] |
| 579 nm | 621 nm | 0.40 | COc1cc(OC)c(/C=C/C2=[N+]3C(=C(CCN)c4cccn4[B-]3(F)F)C(C)=C2)c(OC)c1 [BDM-82] |
